# Laboratory results as given in US12351574B2, “Selective ligands for modulation of GIRK channels” (Northeastern University, priority 2018, dated 2025).
# Assays:
# [1] = target: T1, GIRK1-S65A with GIRK4 (Homo sapiens, UniProt P48544+P48549, S65A); experiment: 5-ptaseOCRL current inhibition, GIRK1/4 channels containing GIRK1-S65A subunits; type: cell-based
# T1 construct: expressed in transfected cells; host or cells: HEK293-T cells
# T1 sequence (P48549 1-501 S65A): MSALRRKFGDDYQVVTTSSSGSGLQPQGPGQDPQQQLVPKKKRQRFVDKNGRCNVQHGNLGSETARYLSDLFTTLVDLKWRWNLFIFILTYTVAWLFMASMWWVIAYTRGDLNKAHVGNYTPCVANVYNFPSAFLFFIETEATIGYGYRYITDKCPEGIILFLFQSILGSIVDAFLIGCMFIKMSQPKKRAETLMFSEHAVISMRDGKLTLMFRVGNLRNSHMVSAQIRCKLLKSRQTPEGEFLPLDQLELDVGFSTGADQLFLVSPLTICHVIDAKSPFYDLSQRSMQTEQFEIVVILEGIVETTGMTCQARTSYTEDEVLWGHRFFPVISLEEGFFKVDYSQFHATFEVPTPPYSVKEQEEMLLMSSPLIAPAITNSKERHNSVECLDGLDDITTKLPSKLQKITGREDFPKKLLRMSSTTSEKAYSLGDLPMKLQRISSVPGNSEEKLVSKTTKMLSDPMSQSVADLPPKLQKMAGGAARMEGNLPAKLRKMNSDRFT
# T1 sequence (P48544 1-419): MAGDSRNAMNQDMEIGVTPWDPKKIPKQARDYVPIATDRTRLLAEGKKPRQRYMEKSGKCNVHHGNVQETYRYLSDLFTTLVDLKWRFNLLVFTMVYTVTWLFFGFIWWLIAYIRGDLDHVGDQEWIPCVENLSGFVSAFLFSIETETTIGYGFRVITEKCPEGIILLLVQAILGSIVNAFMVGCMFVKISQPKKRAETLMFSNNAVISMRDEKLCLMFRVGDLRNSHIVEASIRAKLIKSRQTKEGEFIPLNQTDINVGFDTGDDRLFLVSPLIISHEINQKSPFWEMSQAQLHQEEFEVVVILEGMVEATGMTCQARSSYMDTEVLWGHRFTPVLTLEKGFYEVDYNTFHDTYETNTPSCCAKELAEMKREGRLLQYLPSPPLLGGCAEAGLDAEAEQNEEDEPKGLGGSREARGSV
# Description: To identify changes in specific channel residue interactions with PIP2 upon ligand binding, the inventors carried out Principal Component Analysis (PCA) in the presence and absence of ML297 and GAT1508. The PCA analysis implicated changes in the slide (or interfacial) helix interactions with PIP2 upon ligand binding. Polar interactions could be formed between GIRK2^FD(Y76) and GIRK4^FD(Y71) with the P(4,5) of PIP2 when ML297 was bound to the same subunit (FIG. 39 top, FIG. 40). In contrast, when GAT1508 was bound this interaction was retained by GIRK2^FD but not GIRK4^FD (FIG. 39 bottom, FIG. 40). The corresponding GIRK1(S65) residue (FIG. 41, highlighted with vertical rectangle) could be serving the same role in stabilizing the phosphoinositol headgroup for interactions with non-ligand binding subunits. As polar residues, both Ser and Tyr could form H-bond interactions with PIP2. […]
# Patch-clamp recording: Whole-cell currents were recorded with an Axopatch 200B amplifier (Molecular Devices) controlled via a USB-interface (National Instruments) using WinWCP software (University of Strathclyde). […] The barium-sensitive component of the current, observed when cells were perfused with the high-K^+ buffer, was analyzed and was determined by perfusing 5 mM BaCl2 in the high-K^+ buffer at the end of each experiment. […]
# [2] = open-field (OF) test; type: in vivo, rat
# Description: Open-field (OF) test: The OF apparatus is a plexiglass open-topped chamber (91.5×91.5×30.5 cm), filmed by a ceiling-mounted CCD camera and illuminated by a 25 W red light bulb placed 2 meters above the center of the chamber. […] The automated tracking system ANY-MAZE (ANY-MAZE, Stoelting Co., Wood Dale, IL, USA) was utilized to measure total distance traveled and mean speed.
# [3] = 30 and 60 mg/kg, 30 min after treatment
protection of current from 5-ptaseOCRL (in words) [1],mean speed in the OF test (in words) ([2]; 10 and 30 mg/kg i.p.),total distance travelled in the OF test (in words) ([2]; 10 and 30 mg/kg i.p.),"mean speed in the open arena (in words) [2, 3]","total distance traveled in the open arena (in words) [2, 3]",Compound
not protected,comparable to the vehicle group,comparable to the vehicle group,–,–,"Cc1cc(NC(=O)Nc2ccc(Br)s2)n(-c2ccccc2)n1 [GAT1508, 1-(5-bromothiophen-2-yl)-3-(3-methyl-1-phenyl-1H-pyrazol-5-yl)urea]"
not protected,–,–,comparable to the vehicle group,comparable to the vehicle group,"Cc1cc(NC(=O)Nc2ccc(F)c(F)c2)n(-c2ccccc2)n1 [ML297, reference compound]"
